Test results from patent publication US7981863B2, “Treatment of Parkinson's disease with PDGF” (Neuronova AB, priority 2001, dated 2011).

Legend:
[1] = test system: Neural stem cell cultures; conditions: 50 ng/ml VEGF, 100 nM PADQ or 700 nM SU1498 for 7 days
Protocol: BrdU (10 μM) was added to the culture medium 24 hrs before cells were harvested and lysed. DNA was extracted and BrdU content was determined using an anti-BrdU-ELISA. The data are presented as percent changes in optical density compared to control (Growth medium).

[2] = test system: rat neural stem cells from the adult lateral ventricle wall; experiment: Expansion of rat neural stem cell cultures, total cell counts at 7 days; assay type: cell-based; conditions: for block of the VEGF response / growth of neural stem cell cultures: total cell counts at 7 days; for growth of neural stem cell cultures: growth conditions (EGF and FGF-2), no recombinant VEGF, FIG. 30
Protocol: Neural stem cells were prepared according to the attached protocol. Cells were grown in serum-free medium, subcloned and used between passage 6 and 10. If not otherwise mentioned the experiments consisted of triplets for analysis and were independently repeated at least 3 times.
Basal Medium: Neurobasal medium (NB, Gibco BRL) & B27 supplement (Gibco BRL).
Growth Medium: NB, B27 supplement+20 ng/ml of FGF-2 (R&D Systems)+20 ng/ml EGF (R&D Systems)+2 μg/ml heparin (Sigma, Germany).
Cells were plated in Growth medium at 10.000 cells/ml and after 2 days switched to the experimental condition. Cells were kept under the experimental condition for 7 days.
Adult female Fischer-344 rats (3-4 months; Charles River, Germany) were killed via cervical dislocation, the brains of each rat were removed and stored at 4° C. in DPBS (PAN, Germany) with 4.5 g/L glucose (Merck, Germany) (DPBS/glu). Overlying meninges and blood vessels were removed. Ependymal zone including subependymal/subventricular zone form the lateral wall of the lateral ventricle were aseptically removed. The dissected tissue was transferred to fresh DPBS/glu, washed once, transferred to petri-dishes and dissociated mechanically into a single cell suspension. The cell suspension was washed in DPBS/glu in order to rinse off excess blood and resuspended in PPD-solution containing 0.01% Papain (Worthington Biochemicals, England), 0.1% dispase II (Boehringer, Germany), 0.01% DNase I (Worthington Biochemicals, England) and 12.4 mM MgSO4 in HBSS (PAN, Germany) without Mg^++/Ca^++ (PAA, Germany) and digested for 30 to 40 min at room temperature. The cell solution was triturated every 10 min. Dissociated cells were collected and resuspended in serum-free DMEM/F12 medium containing 2 mM L-glutamine and 0.1 g/L penicillin/streptomycin and washed three times with accurate trituration with a blue tip. Finally the single cell suspension was resuspended in Neurobasal medium (Gibco BRL, Germany) supplemented with B27 (Gibco BRL, Germany) (NB/B27), 2 mM L-glutamine (PAN, Germany), 0.1 g/L penicillin/streptomycin (PAN, Germany), 2 μg/ml heparin (Sigma, Germany), 20 ng/ml bFGF-2 (R&D Systems, Germany) and 20 ng/ml EGF (R&D Systems, Germany). Live cells were counted by trypan blue exclusion assay in a hemocytometer. Cells were seeded in T-25 culture flasks and cultures were maintained at 37° C. in an incubator with 95% air, 5% CO2. Single cells began to form spheres within 5 to 7 days of suspension culture and continued to grow in mass and number over the next weeks. Media were changed every 7 days.
The culture medium containing floating neurospheres was collected in a 15 ml centrifuge tube and centrifuged at 800 rpm. The pellet was resuspended in 200 μl of Accutase (Innovative Cell Technologies Inc., USA, distributed by PAA, Germany) and triturated about 10 times using a pipette. Then, the cell suspension was incubated at 37° C. for 10 min. Dissociated spheres were again triturated and resuspended in 800 μl of NB/B27 medium. An aliquot was counted by trypan blue exclusion assay in a hemocytometer to determine the amount of live and dead cells. 1×10^5 cells were plated in T75 culture flasks for long term passaging (10 ml of culture medium per flask) in NB/B27 medium. The cells obtained after Accutase-treatment of primary neurospheres proliferated and yielded secondary neurospheres. Secondary neurospheres were passaged 7 to 9 days after plating primary neurosphere cells. Similar to primary cultures and primary neurospheres, single cells obtained after dissociation of secondary neurospheres proliferated and yielded tertiary neurospheres. […]

adult rats = conditions: four weeks after 7 days of continuous VEGF infusion into the lateral ventricle
[3] = test system: cells from the lateral ventricle wall; conditions: after intraventricular infusion, compared to aCSF controls; FIG. 33
Flk-1 = conditions: Calbiochem product data; cited from earlier work
[4] = test system: cultured, non-adherent mouse neurospheres; experiment: Intracellular ATP assay, proliferation of cultured mouse neurospheres; assay type: cell-based; conditions: FIG. 1
Protocol: The anterior lateral wall of the lateral ventricle of 5-6 week old mice was enzymatically dissociated in 0.8 mg/ml hyaluronidase and 0.5 mg/ml trypsin in DMEM containing 4.5 mg/ml glucose and 80 units/ml DNase at 37° C. for 20 min. The cells were gently triturated and mixed with three volumes of Neurosphere medium (DMEM/F12, B27 supplement, 125 mM HEPES pH 7.4) containing 20 ng/ml EGF (unless otherwise stated), 100 units/ml penicillin and 100 μg/ml streptomycin. After passing through a 70 μm strainer, the cells were pelleted at 160×g for 5 min. The supernatant was subsequently removed and the cells resuspended in Neurosphere medium supplemented as above, plated out in culture dishes and incubated at 37° C. Neurospheres were ready to be split approximately 7 days after plating.
To split the neurospheres, cells were collected by centrifugation at 160×g for 5 min. The conditioned supernatant (conditioned medium) was removed and saved. The neurospheres were resuspended in 0.5 ml Trypsin/EDTA in HBSS (1×), incubated at 37° C. for 2 min and triturated gently to aid dissociation. Following a further 3 min incubation at 37° C. and trituration, 3 volumes of ice cold Neurosphere medium medium w/o EGF were added to stop further trypsin activity. […]
After 3 days of treatment, intracelluar ATP was measured using the ATP SL kit (Biothema) according to the manufacturer's instructions.

[5] = test system: Mouse Cultured Neural Stemcells/Progenitors; experiment: GFAP and β-III Tubulin in adherent mouse neural stem cells (Western blot, immunocytochemistry); assay type: cell-based
Protocol: NSCs, cultured as described above, were seeded from passage 2 into DMEM/F12 supplemented with B27 into a 24-well plate (poly-D-lysine-coated) as single cells (70.000 cells/well), to which PDGF-AA was added at the concentration of 1 nM. The cells were then differentiated for 5 days changing medium plus/minus PDGF-AA every 48 hours. At day 6 the cells were harvested and Western blots were performed as described elsewhere (Patrone C et al (1999) Proc Natl Acad Sci USA. 96(19):10905-10). A neuronal marker antibody against β-III Tubulin, 1:5000 (BioSite), or a glial marker antibody against glial fibrillary acidic protein (GFAP) 1:5000, (DAKO) was used to measure phenotypic fates.
In another set of experiments the effects of PDGF-AA were studied with immunocytochemical methods in fixed adherently cultured neural stem cells. […] In other experiments with PDGF-AA, analyzed by immunocytochemistry, it was shown that the factor caused a general shift from a stem cell phenotype to a progenitor phenotype in that cultures contained both of the markers, GFAP and β-III Tubulin. […] In concurrent experiments the effect of PDGF-BB was also studied.

Mouse Neural Stem Cells = experiment: Neuronal differentiation (β-III Tubulin) of adult mouse neural stem cells; assay type: cell-based; conditions: 1 nM, 7 days
Protocol: Adult mouse neurosperes were dissociated with trypsin (Gibco) into single cells and transferred to poly-D-Lysine plates (BD) in the above culture medium, without growth factors, supplemented with 1% Fetal Calf Serum (Gibco). The cells were incubated over night to adhere to the plate. The medium was changed to culture medium, without growth factors, supplemented with 1 nM PDGF-AA or PDFG-BB (both from R&D Systems). The medium with new substance added every second day. The cells were incubated for a total of 7 days.
The cells were washed two times with PBS (Gibco) and fixed for 15 min RT with 4% Formaldehyde (Sigma) and permeabilized 20 min RT in 0.1% Triton X-100 (Sigma) in PBS. After fixation and permeabilization the cells were labelled with mouse monoclonal anti-β-III Tubulin (1:500 Promega). Primary antibody was visualized with anti mouse Texas-Red (1:100 Vector Laboratories). All antibodies were diluted in PBS with 0.1% Triton X-100.
The cells were washed twice with PBS (Gibco) and lysed with 200 ul lysis buffer/well. The lysis buffer contained PBS, 0.1% Triton X-100, 1 mM EDTA and 1 tab1. Protease inhibitor cocktail (Roche). The samples were run on a 4-12% Bis-Tris gel (Novex) under reduced conditions with MOPS buffer (Novex) and blotted onto a Hybond ECL nitrocellulose membrane (Amersham Biotech). Blocked in 5% ECL-Block (Amersham Biotech) in PBS+0.1% Tween 20 (Sigma). The membranes were labelled with mouse monoclonal anti-β-III Tubulin (1:5000 Promega). The primary antibody was detected using a secondary antibody anti-mouse-HRP (1:10000 Amersham Biotech) and ECL Plus+ Western Blot Detection Kit (Amersham Biotech). All antibodies were diluted in PBS with 0.1% Triton X-100, 1% ECL Block. The signal were then captured on ECL Hyper Film (Amersham Biotech)

[6] = basal medium, VEGF 50 ng/ml, PADQ 100 nM, SU1498 700 nM
[7] = growth conditions (including EGF and FGF-2)
[8] = 1 nM, 6 days, adherent culture, compared to treatment with EGF
[9] = fixed adherently cultured neural stem cells

VEGF
BrdU incorporation (proliferation ELISA) [1]: more BrdU | DNA strand breaks (apoptosis ELISA) [1]: reduced the amount of DNA strand breaks | stimulation of proliferation of neural stem cell cultures ([2]; different concentrations, 7 days, FIG. 24, FIG. 25): dose-dependent stimulatory effect | ED50 (expansion of neural stem cell cultures) ([2]; growth medium, 7 days, FIG. 27): ~0.01 mg/L | concentration of maximal stimulation ([2]; growth medium, 7 days, FIG. 27): 50 ng/mL | BrdU labeled cells in the dentate gyrus (adult rats): marked increase | number of spheres formed in culture from lateral ventricle wall cells [3]: significantly increased

CC(C)c1cc(/C=C(\C#N)C(=O)NCCCc2ccccc2)cc(C(C)C)c1O [SU1498, (E)-3-(3,5-Diisopropyl-4-hydroxyphenyl)-2-[(3-phenyl-n-propyl)amino-carbonyl]acrylonitrile]
IC50 (Flk-1): 0.7 µM | block of the VEGF response [2, 6]: able to block the VEGF response | growth of neural stem cell cultures [2]: significantly reduce the growth | block of the VEGF response [2, 7]: able to block the VEGF response

PDGF-AA: human recombinant PDGF-AA, platelet derived growth factor A-chain homodimer
effect on the proliferative effect of PDGF-BB when added together ([4]; PDGF-AA added together with PDGF-BB, B27 medium): did not alter the proliferative effect of PDGF-BB | proliferative effect (intracellular ATP) ([4]; growth media supplemented with B27, 1 nM-0.0005 nM, 3 days of treatment): weaker compared to BB | GFAP (Western blot) [5, 8]: downregulation of GFAP | β-III Tubulin neuronal marker (Western blot) [5, 8]: significant increase | GFAP (immunocytochemistry) [5, 9]: down regulation of GFAP | β-III Tubulin (immunocytochemistry) [5, 9]: upregulation of β-III Tubulin | number of β-III Tubulin positive cells in culture (Mouse Neural Stem Cells; compared to the control, FIG. 5): significantly increase the number of β-III Tubulin positive cells | levels of β-III Tubulin protein (Western blot) (Mouse Neural Stem Cells; compared with the control, FIG. 6): significantly increased levels of β-III Tubulin protein | neuronal differentiation of cultured mouse neural stem cells/progenitors (Mouse Neural Stem Cells; FIG. 5 and FIG. 6): trigger neuronal differentiation

COc1cc2ncnc(Nc3ccc(Cl)cc3F)c2cc1OC [PADQ]
IC50 (Flk-1): 0.1 µM | block of the VEGF response [2, 6]: able to block the VEGF response | growth of neural stem cell cultures [2]: significantly reduce the growth | block of the VEGF response [2, 7]: able to block the VEGF response
